System: severe traumatic brain injury (sTBI)
Assay: sTBI in rats, brain gene expression arrays and pathway analysis (Example 9)
Assay type: in vivo, Male Wistar rats
Design: key to z score, canonical pathway Dendritic Cell Maturation / z score, canonical pathway Adrenomedullin Signaling pathway / z score, canonical pathway Endothelin-1 Signaling / effect on canonical pathway Adrenomedullin Signaling pathway / effect on canonical pathway Endothelin-1 Signaling / effect on canonical pathway Dendritic Cell Maturation / Ingenuity canonical pathway Adrenomedullin signaling pathway, z score / Ingenuity canonical pathway FLT3 Signaling in Hematopoietic Progenitor Cells, z score / Ingenuity canonical pathway Opioid Signaling Pathway, z score / Ingenuity canonical pathway VDR/RXR Activation, z score / Ingenuity canonical pathway Neuropathic Pain Signaling In Dorsal Horn Neurons, z score / Ingenuity canonical pathway STAT3 Pathway, z score / Ingenuity canonical pathway IL-1 Signaling, z score / Ingenuity canonical pathway IL-6 Signaling, z score / Ingenuity canonical pathway NF-κB Signaling, z score / Ingenuity canonical pathway Role of NFAT in Cardiac Hypertrophy, z score / Ingenuity canonical pathway PPARα/RXRα Activation, z score: *: ambiguous effect
Conditions: TBI + 5 mg/kg LMW-DS
Description: The experimental protocol used in this study was approved by the Ethical Committee of the Catholic University of Rome, according to international standards and guidelines for animal care. Male Wistar rats of 300-350 g body weight were fed with standard laboratory diet and water ad libitum in a controlled environment. As the anesthetic mixture, the animals received 35 mg/kg b.w. ketamine and 0.25 mg/kg body weight midazolam by i.p. injection. Severe traumatic brain injury (sTBI) was induced by dropping a 450 g weight from 2 m height on to the rat head that had been protected by a metal disk previously fixed on the skull, according to the “weight drop” impact acceleration model (Marmarou et al., A new model of diffuse brain injury in rats. Part I: Pathophysiology and biomechanics. J Neurosurg. 1994; 80: 291-300). […] At the end of each period of treatment, rats were anesthetized again and then immediately sacrificed.
LMW-DS (Tikomed AB) was provided at a stock concentration of 20 mg/ml and was kept in a temperature-monitored refrigerator at 4° C. LMW-DS aliquots were diluted to the appropriate dosing concentration in sterile saline prior to delivery of a single subcutaneous injection.
Three doses of LMW-DS were administered subcutaneously 30 minutes post-TBI. The animals were sacrificed at 2 days post-TBI. The animals were divided into the following subgroups:
Three doses of LMW-DS were administered subcutaneously 30 minutes post-TBI. The animals were sacrificed at 7 days post-TBI. The animals were divided into the following subgroups:
An in vivo craniectomy was performed on all animals during anesthesia. After carefully removing the rat's skull, the brain was exposed and removed with a surgical spatula and quickly dropped in RNALater and preserved at 4° C. for further processing.
RNA extraction and array processing was carried out by SourceBioscience. The arrays used were the Agilent Rat expression arrays.
Statistical analysis was carried out using the Metaboanalyst software package. Gene expression changes of 10% with a p<0.05 were regarded as significant.
Pathway analysis of the differentially regulated genes was carried out using the Ingenuity pathway analysis package. The analysis was performed with special reference to pathways and molecular processes and diseases associated with neurodegenerative disease, including dementia, Alzheimer's disease, ALS, TBI and stroke, and with scarring and fibrosis, including glaucoma and normal pressure hydrocephalus (NPH) after subarachnoid haemorrhage.

[1] = 7 days after TBI, relative to control

## low molecular weight dextran sulfate [LMW-DS]
7 days after TBI
  z score: Cellular homeostasis: 1.615
  z score: Chemotaxis: 1.873
  z score: Concentration of lipid: −0.575
  z score: Development of body axis: 1.213
  z score: Development of body trunk: 1.09
  z score: Development of carcinoma: 0.152
  z score: Development of connective tissue cells: 1.638
  z score: Development of epithelial tissue: 0.262
  z score: Development of genitourinary system: −0.336
  z score: Development of head: 1.213
  z score: Development of neurons: 1.106
  z score: Development of sensory organ: 0.669
  z score: Development of vasculature: 0.295
  z score: Differentiation of bone: 1.012
  z score: Differentiation of bone cells: 0.85
  z score: Differentiation of connective tissue cells: 0.769
  z score: Digestive organ tumor: −1.348
  z score: Digestive system cancer: −1.792
  z score: Endocrine gland tumor: −0.067
  z score: Expression of RNA: 1.797
  z score: Extracranial solid tumor: 0.369
  z score: Failure of kidney: 0.555
  z score: Formation of eye: 1.664
  z score: Gastrointestinal tumor: −1.215
  z score: Genital tumor: 0.305
  z score: Genitourinary carcinoma: 1.131
  z score: Genitourinary tumor: 1.388
  z score: Glucose metabolism disorder: 0.439
  z score: Growth of connective tissue: −0.324
  z score: Growth of epithelial tissue: −1.58
  z score: Growth of tumor: 2.295
  z score: Head and neck cancer: −1.154
  z score: Head and neck tumor: −0.355
  z score: Hematologic cancer: −1.725
  z score: Hematologic cancer of cells: −1.486
  z score: Hematopoietic neoplasm: −1.002
  z score: Intestinal tumor: −1.09
  z score: Invasion of cells: 1.32
  z score: Leukocyte migration: 3.062
  z score: Lymphatic system tumor: −0.956
  z score: Lymphocytic cancer: −1.486
  z score: Lymphocytic neoplasm: −1.486
  z score: Lymphoid cancer: −0.956
  z score: Lymphoma: −1.224
  z score: Lymphoproliferative disorder: −1.727
  z score: Lymphoreticular neoplasm: −1.224
  z score: Malignant genitourinary solid tumor: 0.346
  z score: Malignant solid tumor: 0.423
  z score: Microtubule dynamics: 1.82
  z score: Migration of cells: 2.659
  z score: Migration of endothelial cells: 2.16
  z score: Morbidity or mortality: −2.848
  z score: Necrosis: 0.228
  z score: Necrosis of epithelial tissue: 1.674
  z score: Neoplasia of cells: 0.474
  z score: Neoplasia of leukocytes: −1.486
  z score: Non-hematologic malignant neoplasm: −0.243
  z score: Non-hematological solid tumor: 0.021
  z score: Non-melanoma solid tumor: 0.01
  z score: Obesity: 0.493
  z score: Organismal death: −2.885
  z score: Organization of cytoskeleton: 2.174
  z score: Pelvic tumor: 0.445
  z score: Peripheral vascular disease: 1
  z score: Proliferation of connective tissue cells: −0.747
  z score: Proliferation of epithelial cells: −1.196
  z score: Quantity of cells: 0.634
  z score: Quantity of connective tissue: 0.609
  z score: Renal impairment: 0.555
  z score: Secretion of molecule: 1.386
  z score: Sensory system development: −0.307
  z score: Size of body: 0.748
  z score: Skin lesion: −0.111
  z score: Skin tumor: −2.396
  z score: Solid tumor: 1.29
  z score: Synthesis of lipid: 1.937
  z score: Transcription: 1.317
  z score: Transcription of RNA: 1.221
  z score: Transport of molecule: 1.854
  z score: Tumorigenesis of tissue: −0.832
  z score: Vasculogenesis: 0.507
[1]
  Ingenuity canonical pathway Acute Phase Response Signaling, z score: 1.89
  Ingenuity canonical pathway Adrenomedullin signaling pathway, z score: −0.632
  Ingenuity canonical pathway Cardiac Hypertrophy Signaling, z score: 1
  Ingenuity canonical pathway Colorectal Cancer Metastasis Signaling, z score: −0.378
  Ingenuity canonical pathway Dendritic Cell Maturation, z score: 1.897
  Ingenuity canonical pathway ERK5 Signaling, z score: −0.447
  Ingenuity canonical pathway ERK/MAPK Signaling, z score: 1
  Ingenuity canonical pathway Endothelin-1 Signaling, z score: 1.633
  Ingenuity canonical pathway Fcγ Receptor-mediated Phagocytosis in Macrophages and Monocytes, z score: 2.236
  Ingenuity canonical pathway GNRH Signaling, z score: 2
  Ingenuity canonical pathway HMGB1 Signaling, z score: 1.134
  Ingenuity canonical pathway IL-1 Signaling, z score: 1
  Ingenuity canonical pathway IL-6 Signaling, z score: 1
  Ingenuity canonical pathway IL-8 Signaling, z score: 2.646
  Ingenuity canonical pathway ILK Signaling, z score: 1.89
  Ingenuity canonical pathway Leukocyte Extravasation Signaling, z score: 1.342
  Ingenuity canonical pathway NF-κB Signaling, z score: *
  Ingenuity canonical pathway Neuroinflammation Signaling Pathway, z score: 1.941
  Ingenuity canonical pathway Opioid Signaling Pathway, z score: *
  Ingenuity canonical pathway Osteoarthritis Pathway, z score: −1
  Ingenuity canonical pathway PI3K Signaling in B Lymphocytes, z score: 1.89
  Ingenuity canonical pathway PKCθ Signaling in T Lymphocytes, z score: 2
  Ingenuity canonical pathway PPAR Signaling, z score: −1.342
  Ingenuity canonical pathway PPARα/RXRα Activation, z score: *
  Ingenuity canonical pathway Phospholipase C Signaling, z score: 1
  Ingenuity canonical pathway Production of Nitric Oxide and Reactive Oxygen Species in Macrophages, z score: 2.236
  Ingenuity canonical pathway Protein Kinase A Signaling, z score: −1.342
  Ingenuity canonical pathway Role of NFAT in Cardiac Hypertrophy, z score: *
  Ingenuity canonical pathway Role of NFAT in Regulation of the Immune Response, z score: 2.53
  Ingenuity canonical pathway STAT3 Pathway, z score: *
  Ingenuity canonical pathway Signaling by Rho Family GTPases, z score: 1
  Ingenuity canonical pathway Synaptic Long Term Depression, z score: 1
  Ingenuity canonical pathway VDR/RXR Activation, z score: *
  Ingenuity canonical pathway Wnt/β-catenin Signaling, z score: −1
  Ingenuity canonical pathway cAMP-mediated signaling, z score: −2
After 7 days, TBI: Activated
  Diseases or functions annotation: Apoptosis: Inhibited
  Diseases or functions annotation: Apoptosis of tumor cell lines: Inhibited
  Diseases or functions annotation: Bleeding: Inhibited
  Diseases or functions annotation: Breast or colorectal cancer: Inhibited
  Diseases or functions annotation: Breast or ovarian cancer: Inhibited
  Diseases or functions annotation: Cell death: Activated
  Diseases or functions annotation: Cell death of epithelial cells: Activated
  Diseases or functions annotation: Cell death of tumor cell lines: Inhibited
  Diseases or functions annotation: Development of sensory organ: Activated
  Diseases or functions annotation: Digestive organ tumor: Inhibited
  Diseases or functions annotation: Extracranial solid tumor: Activated
  Diseases or functions annotation: Failure of kidney: Activated
  Diseases or functions annotation: Formation of eye: Activated
  Diseases or functions annotation: Gastrointestinal tumor: Inhibited
  Diseases or functions annotation: Glucose metabolism disorder: Activated
  Diseases or functions annotation: Hematologic cancer: Inhibited
  Diseases or functions annotation: Hematologic cancer of cells: Inhibited
  Diseases or functions annotation: Hematopoietic neoplasm: Inhibited
  Diseases or functions annotation: Intestinal tumor: Inhibited
  Diseases or functions annotation: Lymphatic system tumor: Inhibited
  Diseases or functions annotation: Lymphocytic cancer: Inhibited
  Diseases or functions annotation: Lymphocytic neoplasm: Inhibited
  Diseases or functions annotation: Lymphoid cancer: Inhibited
  Diseases or functions annotation: Lymphoma: Inhibited
  Diseases or functions annotation: Lymphoproliferative disorder: Inhibited
  Diseases or functions annotation: Lymphoreticular neoplasm: Inhibited
  Diseases or functions annotation: Morbidity or mortality: Inhibited
  Diseases or functions annotation: Necrosis: Activated
  Diseases or functions annotation: Necrosis of epithelial tissue: Activated
  Diseases or functions annotation: Neoplasia of leukocytes: Inhibited
  Diseases or functions annotation: Obesity: Activated
  Diseases or functions annotation: Organismal death: Inhibited
  Diseases or functions annotation: Peripheral vascular disease: Activated
  Diseases or functions annotation: Renal impairment: Activated
  Diseases or functions annotation: Sensory system development: Inhibited
  Diseases or functions annotation: Skin lesion: Inhibited
  Diseases or functions annotation: Skin tumor: Inhibited
After 7 days, TBI: Inhibited
  Diseases or functions annotation: Abdominal adenocarcinoma: Activated
  Diseases or functions annotation: Abdominal cancer: Inhibited
  Diseases or functions annotation: Abdominal carcinoma: Inhibited
  Diseases or functions annotation: Abdominal neoplasm: Activated
  Diseases or functions annotation: Adenocarcinoma: Inhibited
  Diseases or functions annotation: Angiogenesis: Activated
  Diseases or functions annotation: Breast or pancreatic cancer: Inhibited
  Diseases or functions annotation: Cancer: Activated
  Diseases or functions annotation: Cancer of cells: Activated
  Diseases or functions annotation: Cancer of secretory structure: Activated
  Diseases or functions annotation: Carcinoma: Inhibited
  Diseases or functions annotation: Cell cycle progression: Activated
  Diseases or functions annotation: Cell movement: Activated
  Diseases or functions annotation: Cell movement of endothelial cells: Activated
  Diseases or functions annotation: Cell movement of myeloid cells: Activated
  Diseases or functions annotation: Cell movement of tumor cell lines: Activated
  Diseases or functions annotation: Cell survival: Activated
  Diseases or functions annotation: Cell viability: Activated
  Diseases or functions annotation: Cell viability of tumor cell lines: Activated
  Diseases or functions annotation: Cellular homeostasis: Activated
  Diseases or functions annotation: Chemotaxis: Activated
  Diseases or functions annotation: Concentration of lipid: Inhibited
  Diseases or functions annotation: Development of body axis: Activated
  Diseases or functions annotation: Development of body trunk: Activated
  Diseases or functions annotation: Development of connective tissue cells: Activated
  Diseases or functions annotation: Development of epithelial tissue: Activated
  Diseases or functions annotation: Development of genitourinary system: Inhibited
  Diseases or functions annotation: Development of head: Activated
  Diseases or functions annotation: Development of neurons: Activated
  Diseases or functions annotation: Development of vasculature: Activated
  Diseases or functions annotation: Differentiation of bone: Activated
  Diseases or functions annotation: Differentiation of bone cells: Activated
  Diseases or functions annotation: Differentiation of connective tissue cells: Activated
  Diseases or functions annotation: Digestive system cancer: Inhibited
  Diseases or functions annotation: Endocrine gland tumor: Inhibited
  Diseases or functions annotation: Expression of RNA: Activated
  Diseases or functions annotation: Genital tumor: Activated
  Diseases or functions annotation: Genitourinary carcinoma: Activated
  Diseases or functions annotation: Genitourinary tumor: Activated
  Diseases or functions annotation: Growth of connective tissue: Inhibited
  Diseases or functions annotation: Growth of epithelial tissue: Inhibited
  Diseases or functions annotation: Growth of tumor: Activated
  Diseases or functions annotation: Head and neck cancer: Inhibited
  Diseases or functions annotation: Head and neck tumor: Inhibited
  Diseases or functions annotation: Invasion of cells: Activated
  Diseases or functions annotation: Leukocyte migration: Activated
  Diseases or functions annotation: Malignant genitourinary solid tumor: Activated
  Diseases or functions annotation: Malignant solid tumor: Activated
  Diseases or functions annotation: Microtubule dynamics: Activated
  Diseases or functions annotation: Migration of cells: Activated
  Diseases or functions annotation: Migration of endothelial cells: Activated
  Diseases or functions annotation: Neoplasia of cells: Activated
  Diseases or functions annotation: Non-hematological solid tumor: Activated
  Diseases or functions annotation: Non-melanoma solid tumor: Activated
  Diseases or functions annotation: Nonhematologic malignant neoplasm: Inhibited
